Data as given in ChEMBL document CHEMBL5108004, “An auristatin-based peptide-drug conjugate targeting Kita-Kyushu lung cancer antigen 1 for precision chemoradiotherapy in gastric cancer” (Eur J Med Chem, 2022).
Active and inactive are the calls of the source. The rule behind the calls is not given here. *1 amine or outer side, *2 acyl side, *3 side chain or, on linkers, in order; H or OH if unused. Where a SMILES comes first, the peptide text is derived from it. Bridges are numbered along the chain shown (N, C = ends). Roman numbers before positions name the chains, in order. [ ]: non-standard residue; d: D form. The star is where a group is joined. Hexanoyl(6-succinimido-3yl) = O=C1CC([*:1])C(=O)N1CCCCCC(=O)[*:2]; Dolaproine = CO[C@@H]([C@@H]1CCCN1)[C@@H](C)C(=O)O; Dil = CC[C@H](C)[C@H](NC)[C@@H](CC(=O)O)OC; PABC = O=C(OCc1ccc(N[*:1])cc1)[*:2]; X1 = C[C@@H](N*)[C@@H](O)c1ccccc1; Cit = NC(=O)NCCC[C@H](N)C(=O)O; NMeV = CN[C@H](C(=O)O)C(C)C

Columns and labels:
[1] = Stability in PBS at 37 degreeC measured after 48 hrs by HPLC analysis; assay type: physicochemical; settings: buffer
[2] = tested on: MKN-45; experiment: Induction of apoptosis in KK-LC-1-positive human MKN-45 cells at 100 nM incubated for 24 hrs followed by exposure to 2 Gy gamma irradiation by AnnexinV/PI-staining based flow cytometry; assay type: functional, cell-based
[3] = Toxicity in male BALB/c nude mouse xenografted with KK-LC-1-positive human MKN-45 cells assessed as effect on kidney function at 2 mg/kg, iv administered twice a week for 3 weeks; assay type: organism-based; settings: in vivo, 504 h
[4] = Toxicity in male BALB/c nude mouse xenografted with KK-LC-1-positive human MKN-45 cells assessed as effect on liver function at 0.3 mg/kg, iv administered twice a week for 3 weeks; assay type: organism-based; settings: in vivo, 504 h
[5] = tested on: NUGC-4; experiment: Antitumor activity against KK-LC-1-positive human NUGC-4 cells xenografted in male BALB/c nude mouse assessed as reduction in tumor burden at 0.3 mg/kg, iv administered once a week for 3 weeks followed by exposure to 2 Gy gamma irradiation for 2 consecutive days once a week for 3 weeks; assay type: functional, organism-based
[6] = tested on: NUGC-4; experiment: Cell cycle arrest in KK-LC-1-positive human NUGC-4 cells assessed as increase accumulation at G2/M phase at 100 nM measured after 0 to 48 hrs by propidium iodide staining based flow cytometric analysis; assay type: functional; settings: time 0-48 hrs, TDE = time-dependent effect
[7] = Toxicity in male BALB/c nude mouse xenografted with KK-LC-1-positive human MKN-45 cells assessed as mouse death at 3 mg/kg, iv administered twice a week for 3 weeks; assay type: organism-based; settings: in vivo, 504 h
[8] = tested on: MKN-45; experiment: Antitumor activity against KK-LC-1-positive human MKN-45 cells xenografted in male BALB/c nude mouse assessed as induction of tumor regression at 0.3 mg/kg, iv administered twice a week for 3 weeks; assay type: functional, organism-based
[9] = Toxicity in male BALB/c nude mouse xenografted with KK-LC-1-positive human MKN-45 cells assessed as effect on kidney function at 0.3 mg/kg, iv administered twice a week for 3 weeks; assay type: organism-based; settings: in vivo, 504 h
[10] = tested on: MKN-45; experiment: Antitumor activity against KK-LC-1-positive human MKN-45 cells xenografted in male BALB/c nude mouse assessed as reduction in tumor growth at 0.3 mg/kg, iv administered twice a week for 3 weeks; assay type: functional, organism-based
[11] = Toxicity in male BALB/c nude mouse xenografted with KK-LC-1-positive human MKN-45 cells assessed as increase in survival of mouse at 0.3 mg/kg, iv administered twice a week for 3 weeks; assay type: organism-based; settings: in vivo, 504 h
[12] = Biodistribution in tumor of nude mouse xenografted with KK-LC-1-positive human NUGC-4 cells using Cy5-labeled compound at 10 nmol, iv and measured after 24 hrs by near-infrared imaging method; assay type: ADME, organism-based, Neoplasm; settings: in vivo
[13] = tested on: NUGC-4; experiment: Induction of mitotic arrest in KK-LC-1-positive human NUGC-4 cells xenografted in nude mouse assessed as number of pHH3-positive nuclei in tumor at 4 nmol, iv administered as single dose and measured after 24 hrs by pHH3 immunohistochemical staining method relative to control; assay type: functional
[14] = tested on: MKN-45; experiment: Antitumor activity against KK-LC-1-positive human MKN-45 cells xenografted in male BALB/c nude mouse assessed as tumor volume at 0.3 mg/kg, iv administered twice a week for 3 weeks; assay type: functional
[15] = tested on: NUGC-4; experiment: Cell cycle arrest in KK-LC-1-positive human NUGC-4 cells assessed as accumulation at G2/M phase at 100 nM measured after 24 hrs by propidium iodide staining based flow cytometric analysis (reference value: 21.5 +/- 0.7 %); assay type: functional
[16] = Drug uptake in KK-LC-1-positive human NUGC-4 cells using FITC-labeled compound at 100 uM incubated for 10 to 70 mins and assessed as drug internalization measured by DAPI staining method; assay type: ADME, cell-based; settings: nugc-4, 100 µM, time 10-70 min
[17] = Toxicity in male BALB/c nude mouse xenografted with KK-LC-1-positive human MKN-45 cells administered intravenously twice a week for 3 weeks; settings: in vivo, route iv
[18] = molecular target: T1, Kita-kyushu lung cancer antigen 1 (Homo sapiens) (UniProt Q5H943); experiment: Binding affinity to recombinant KK-LC-1 (unknown origin) using FITC-labeled compound at 0.1 to 1000 uM incubated for 2 hrs and measured by FLISA assay; settings: dose 0.1-1000 µM
T1 sequence (whole entry): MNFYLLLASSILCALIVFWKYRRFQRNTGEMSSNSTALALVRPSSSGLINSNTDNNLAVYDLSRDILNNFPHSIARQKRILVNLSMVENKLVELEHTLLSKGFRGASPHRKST

[19] = tested on: HGC-27; experiment: Cytotoxicity against KK-LC-1-negative human HGC-27 cells incubated for 72 hrs by CCK-8 assay; assay type: functional, cell-based; settings: HGC-27, 72 h
[20] = Stability in human plasma assessed as compound remaining at 500 uM measured after 8 hrs by HPLC analysis; assay type: ADME, cell-free; settings: read-out: Stability
[21] = tested on: NUGC-4; experiment: Inhibition of colony formation in KK-LC-1-positive human NUGC-4 cells assessed as decrease in colonies incubated for 24 hrs followed by exposure to 2 Gy gamma irradiation by crystal violet staining based clonogenic assay; assay type: functional, cell-based
[22] = Toxicity in male BALB/c nude mouse xenografted with KK-LC-1-positive human MKN-45 cells assessed as body weight loss at 2 mg/kg, iv administered twice a week for 3 weeks; assay type: organism-based; settings: in vivo, 504 h
[23] = Ratio IC50 for cytotoxicity against KK-LC-1-negative human HGC-27 cells to IC50 for cytotoxicity against KK-LC-1-positive human NUGC-4 cells
[24] = tested on: MKN-45; experiment: Cytotoxicity against KK-LC-1-positive human MKN-45 cells incubated for 72 hrs by CCK-8 assay; assay type: functional, cell-based; settings: MKN-45, 72 h
[25] = Toxicity in male BALB/c nude mouse xenografted with KK-LC-1-positive human MKN-45 cells assessed as effect on liver function at 1 mg/kg, iv administered twice a week for 3 weeks; assay type: organism-based; settings: in vivo, 504 h

Compound: CC[C@H](C)[C@@H]([C@@H](CC(=O)N1CCC[C@H]1[C@H](OC)[C@@H](C)C(=O)N[C@H](C)[C@@H](O)c1ccccc1)OC)N(C)C(=O)[C@@H](NC(=O)[C@@H](NC(=O)[C@H](C(C)C)N(C)C(=O)OCc1ccc(NC(=O)[C@H](CCCNC(N)=O)NC(=O)[C@@H](NC(=O)CCCCCN2C(=O)CC(SC[C@H](N)C(=O)N[C@H]3CSSC[C@@H](C(=O)O)NC(=O)[C@H]([C@@H](C)O)NC(=O)[C@H]([C@@H](C)O)NC(=O)[C@H](CC(C)C)NC(=O)[C@H](C)NC(=O)[C@H]([C@@H](C)O)NC(=O)[C@H](CC(N)=O)NC(=O)[C@H](CCCCN)NC3=O)C2=O)C(C)C)cc1)C(C)C)C(C)C (stereo not given in full) (I: H-CCKNTALTTC-OH / II: V[Cit][PABC][NMeV]VV[Dil][Dolaproine]-X1; linker I:1-II:N via Hexanoyl(6-succinimido-3yl); disulfide I:2-I:10)
- Stability [1]: Stable
- Activity [2]: Active
- Activity [3]: Non-Toxic
- Activity [4]: Non-Toxic
- Activity [5]: Active
- Activity [6]: Tde
- Activity [7]: Toxic
- Activity [8]: Active
- Activity [9]: Non-Toxic
- Activity [10]: Active
- Activity [11]: Non-Toxic
- Drug uptake [12]: Active
- Activity [13]: 87
- Activity [14]: 292.1 mm3
- Activity [15]: 67.4%
- Drug uptake [16]: Active
- MTD at 504 h [17]: 2 mg/kg
- Activity [18]: Active
- IC50 [19]: 786 nM
- remaining at 8 h, 500 µM [20]: 42.5%
- inhibition [21]: Active
- Activity [22]: Non-Toxic
- Ratio IC50 [23]: 100
- IC50 [24]: 5.26 nM
- Activity [25]: Non-Toxic
